Reference: ChEMBL document CHEMBL2202962, “The discovery of a novel series of glucokinase activators based on a pyrazolopyrimidine scaffold” (Bioorg Med Chem Lett, 2012)
Values after ≈ are worked out from the molar mass of the structure shown.

tested on: not listed separately; experiment: Volume of distribution at steady state in rat; format: ADME, organism-based; conditions: in vivo, read-out: Vdss

Vd [L/kg] | Compound
3.2 | COCC[C@H](Oc1ncnc2c1cnn2-c1ccccc1Cl)C(=O)Nc1ccc(C)cn1

tested on: not listed separately; experiment: Oral bioavailability in rat; format: ADME, organism-based; conditions: in vivo

bioavailability [%] | Compound
53 | COCC[C@H](Oc1ncnc2c1cnn2-c1ccccc1Cl)C(=O)Nc1ccc(C)cn1

tested on: Hepatocyte; experiment: Intrinsic clearance in rat hepatocytes assessed per 10^6 cells; format: ADME, cell-based; conditions: not given

CLint [µL/min/1e6 cells] | Compound
35 | COCC[C@H](Oc1ncnc2c1cnn2-c1ccccc1Cl)C(=O)Nc1ccc(C)cn1
27 | COCC[C@H](Oc1ncnc2c1cnn2-c1ccccc1C(F)(F)F)C(=O)Nc1ccc(C)cn1
132 | COCC[C@H](Oc1ncnc2c1cnn2-c1ccccc1OC)C(=O)Nc1ccc(C)cn1

tested on: not listed separately; experiment: Clearance in rat; format: ADME, organism-based; conditions: in vivo

clearance [mL/min/kg] | Compound
34 | COCC[C@H](Oc1ncnc2c1cnn2-c1ccccc1Cl)C(=O)Nc1ccc(C)cn1

tested on: not listed separately; experiment: Solubility of the compound; conditions: not given

solubility [µM] | Compound
95 (≈ 43 µg/mL) | COCC[C@H](Oc1ncnc2c1cnn2-c1ccccc1Cl)C(=O)Nc1ccc(C)cn1
86 (≈ 38.6 µg/mL) | COCC[C@H](Oc1ncnc2c1cnn2-c1ccccc1OC)C(=O)Nc1ccc(C)cn1

tested on: Liver microsomes; experiment: Drug metabolism in human liver microsomes assessed as glutathione adduct formation relative to clozapine; format: ADME, Microsome; conditions: not given

fold change (FC) | Compound
5 | Cc1csc(NC(=O)CSc2ncnc3c2cnn3-c2ccccc2Cl)n1
5 | O=C(CSc1ncnc2c1cnn2-c1ccccc1Cl)Nc1ccccc1
5 | Cc1ccc(NC(=O)CSc2ncnc3c2cnn3-c2ccccc2Cl)nc1
5 | O=C(CSc1ncnc2c1cnn2-c1ccccc1Cl)Nc1ncccn1
5 | Cn1ccc(NC(=O)CSc2ncnc3c2cnn3-c2ccccc2Cl)n1
5 | CCCCC(Sc1ncnc2c1cnn2-c1ccccc1Cl)C(=O)Nc1nc(C)cs1 (racemic)
5 | COCCC(Sc1ncnc2c1cnn2-c1ccccc1Cl)C(=O)Nc1nc(C)cs1 (racemic)
5 | COCCOCCC(Sc1ncnc2c1cnn2-c1ccccc1Cl)C(=O)Nc1nc(C)cs1 (racemic)
5 | Cc1csc(NC(=O)C(Sc2ncnc3c2cnn3-c2ccccc2Cl)c2ccccc2)n1 (racemic)

tested on: not listed separately; experiment: Octanol-water partition coefficient, log D of the compound by HPLC analysis; conditions: not given

logD | Compound
3.8 | Cc1csc(NC(=O)CSc2ncnc3c2cnn3-c2ccccc2Cl)n1
4.3 | O=C(CSc1ncnc2c1cnn2-c1ccccc1Cl)Nc1ccccc1
4.2 | Cc1ccc(NC(=O)CSc2ncnc3c2cnn3-c2ccccc2Cl)nc1
2.2 | O=C(CSc1ncnc2c1cnn2-c1ccccc1Cl)Nc1ncccn1
2.5 | Cn1ccc(NC(=O)CSc2ncnc3c2cnn3-c2ccccc2Cl)n1
3.2 | Cc1csc(NC(=O)COc2ncnc3c2cnn3-c2ccccc2Cl)n1
3.9 | COCC[C@H](Oc1ncnc2c1cnn2-c1ccccc1Cl)C(=O)Nc1ccc(C)cn1
3.5 | COCC[C@H](Oc1ncnc2c1cnn2-c1ccccc1OC)C(=O)Nc1ccc(C)cn1
6.4 | CCCCC(Sc1ncnc2c1cnn2-c1ccccc1Cl)C(=O)Nc1nc(C)cs1 (racemic)
4.8 | COCCC(Sc1ncnc2c1cnn2-c1ccccc1Cl)C(=O)Nc1nc(C)cs1 (racemic)
4.7 | COCCOCCC(Sc1ncnc2c1cnn2-c1ccccc1Cl)C(=O)Nc1nc(C)cs1 (racemic)
5.6 | Cc1csc(NC(=O)C(Sc2ncnc3c2cnn3-c2ccccc2Cl)c2ccccc2)n1 (racemic)
5.7 | CCCCC(Oc1ncnc2c1cnn2-c1ccccc1Cl)C(=O)Nc1nc(C)cs1 (racemic)
4.1 | COCCC(Oc1ncnc2c1cnn2-c1ccccc1Cl)C(=O)Nc1ccc(C)cn1 (racemic)
4.2 | COCCC(Oc1ncnc2c1cnn2-c1ccccc1C)C(=O)Nc1ccc(C)cn1 (racemic)
3.5 | COCCC(Oc1ncnc2c1cnn2-c1ccccc1OC)C(=O)Nc1ccc(C)cn1 (racemic)

target: T1, Hexokinase-4 (Homo sapiens, UniProt P35557); experiment: Activation of human glucokinase; conditions: not given
T1 sequence (P35557 whole entry): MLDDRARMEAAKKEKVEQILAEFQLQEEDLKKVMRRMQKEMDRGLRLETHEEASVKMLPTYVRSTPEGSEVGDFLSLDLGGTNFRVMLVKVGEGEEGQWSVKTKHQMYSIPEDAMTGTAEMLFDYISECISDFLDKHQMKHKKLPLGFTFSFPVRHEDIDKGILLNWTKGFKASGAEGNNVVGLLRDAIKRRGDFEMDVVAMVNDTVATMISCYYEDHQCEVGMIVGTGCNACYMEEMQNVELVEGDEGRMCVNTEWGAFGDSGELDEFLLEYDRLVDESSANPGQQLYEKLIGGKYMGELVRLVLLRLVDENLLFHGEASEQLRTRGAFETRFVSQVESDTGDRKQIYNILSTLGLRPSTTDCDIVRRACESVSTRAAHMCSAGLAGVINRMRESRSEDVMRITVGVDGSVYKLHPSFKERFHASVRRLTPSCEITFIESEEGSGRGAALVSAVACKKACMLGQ

EC50 [nM] | Compound
2510 | Cc1csc(NC(=O)CSc2ncnc3c2cnn3-c2ccccc2Cl)n1
> 100000 | Cc1csc(NC(=O)CSc2ncnc3c2cnn3-c2ccccc2)n1
> 100000 | O=C(CSc1ncnc2c1cnn2-c1ccccc1Cl)Nc1ccccc1
501 | Cc1ccc(NC(=O)CSc2ncnc3c2cnn3-c2ccccc2Cl)nc1
> 100000 | O=C(CSc1ncnc2c1cnn2-c1ccccc1Cl)Nc1ncccn1
15800 | Cn1ccc(NC(=O)CSc2ncnc3c2cnn3-c2ccccc2Cl)n1
1580 | Cc1csc(NC(=O)COc2ncnc3c2cnn3-c2ccccc2Cl)n1
50.1 | COCC[C@H](Oc1ncnc2c1cnn2-c1ccccc1Cl)C(=O)Nc1ccc(C)cn1
126 | COCC[C@H](Oc1ncnc2c1cnn2-c1ccccc1OC)C(=O)Nc1ccc(C)cn1
631 | CCCCC(Sc1ncnc2c1cnn2-c1ccccc1Cl)C(=O)Nc1nc(C)cs1 (racemic)
794 | COCCC(Sc1ncnc2c1cnn2-c1ccccc1Cl)C(=O)Nc1nc(C)cs1 (racemic)
3160 | COCCOCCC(Sc1ncnc2c1cnn2-c1ccccc1Cl)C(=O)Nc1nc(C)cs1 (racemic)
> 100000 | Cc1csc(NC(=O)C(Sc2ncnc3c2cnn3-c2ccccc2Cl)c2ccccc2)n1 (racemic)
126 | CCCCC(Oc1ncnc2c1cnn2-c1ccccc1Cl)C(=O)Nc1nc(C)cs1 (racemic)
100 | COCCC(Oc1ncnc2c1cnn2-c1ccccc1Cl)C(=O)Nc1ccc(C)cn1 (racemic)
316 | COCCC(Oc1ncnc2c1cnn2-c1ccccc1C)C(=O)Nc1ccc(C)cn1 (racemic)
200 | COCCC(Oc1ncnc2c1cnn2-c1ccccc1OC)C(=O)Nc1ccc(C)cn1 (racemic)

target: Voltage-gated inwardly rectifying potassium channel KCNH2 (Homo sapiens, UniProt Q12809); conditions: not given
Sequence (Q12809 whole entry): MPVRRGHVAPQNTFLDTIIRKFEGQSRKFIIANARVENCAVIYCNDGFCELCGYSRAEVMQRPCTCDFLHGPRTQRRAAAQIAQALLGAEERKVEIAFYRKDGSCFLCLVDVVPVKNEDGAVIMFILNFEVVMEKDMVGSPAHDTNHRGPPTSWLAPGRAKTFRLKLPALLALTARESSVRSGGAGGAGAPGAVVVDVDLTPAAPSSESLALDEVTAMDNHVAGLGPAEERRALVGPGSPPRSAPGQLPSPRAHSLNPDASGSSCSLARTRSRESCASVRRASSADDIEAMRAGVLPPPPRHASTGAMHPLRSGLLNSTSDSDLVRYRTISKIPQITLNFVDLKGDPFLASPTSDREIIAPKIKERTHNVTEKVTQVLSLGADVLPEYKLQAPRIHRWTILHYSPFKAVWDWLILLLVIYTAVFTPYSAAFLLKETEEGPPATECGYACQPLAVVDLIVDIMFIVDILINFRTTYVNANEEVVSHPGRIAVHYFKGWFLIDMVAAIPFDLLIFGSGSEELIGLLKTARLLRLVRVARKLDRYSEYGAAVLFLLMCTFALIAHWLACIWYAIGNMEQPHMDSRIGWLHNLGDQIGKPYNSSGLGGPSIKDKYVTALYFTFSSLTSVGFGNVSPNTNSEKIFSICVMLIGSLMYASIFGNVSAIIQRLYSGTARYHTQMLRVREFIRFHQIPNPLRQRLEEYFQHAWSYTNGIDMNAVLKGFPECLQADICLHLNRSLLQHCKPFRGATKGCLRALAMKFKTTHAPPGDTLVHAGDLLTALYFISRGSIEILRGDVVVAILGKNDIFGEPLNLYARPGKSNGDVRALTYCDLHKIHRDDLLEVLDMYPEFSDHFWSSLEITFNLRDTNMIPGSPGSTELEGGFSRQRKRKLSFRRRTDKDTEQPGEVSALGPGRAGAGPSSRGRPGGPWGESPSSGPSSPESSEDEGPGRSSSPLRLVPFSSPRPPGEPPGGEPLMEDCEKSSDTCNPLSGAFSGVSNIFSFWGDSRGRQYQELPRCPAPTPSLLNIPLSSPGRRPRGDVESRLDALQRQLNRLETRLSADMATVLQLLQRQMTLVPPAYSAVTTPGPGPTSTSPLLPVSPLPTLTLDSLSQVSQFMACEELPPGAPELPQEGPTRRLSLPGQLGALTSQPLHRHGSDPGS

Compound | IC50 [nM]
COCC[C@H](Oc1ncnc2c1cnn2-c1ccccc1Cl)C(=O)Nc1ccc(C)cn1 | 22000
COCC[C@H](Oc1ncnc2c1cnn2-c1ccccc1OC)C(=O)Nc1ccc(C)cn1 | > 33000
